# Reference: US20240000950A1, “THERAPEUTIC CURE-PRO COMPOUNDS FOR TARGETED DEGRADATION OF BET DOMAIN PROTEINS, AND METHODS OF MAKING AND USING THEM” (CORNELL UNIVERSITY, priority 2020, published 2024)
# Entries after “also recorded” stand apart in the source; their conditions may differ.
# Tests used:
# Type in all cases: cell-based
# [1] = target: T1, BRD4 (Homo sapiens, UniProt O60885); assay: Summary of E3 ligase directed degradation of BRD4, estimated from Western Blot or WES (Tables 1-6); set-up: endogenous in cells; host or cells: HeLa, MCF7 or HCT116; details: Table 3; aromatic 1,2-diol-containing VHL ligand drawn as drawing 442 (by the text apparently 8305)
# In short: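 HeLa, MCF7 or HCT116 cells treated 24 h with compounds in DMSO, lysed in RIPA buffer; BRD4 levels read by Western blot (ECL detection) or capillary WES with HRP detection. Check mark denotes 30% to 70% or higher protein degradation.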
# [2] = test system: caspase 3/7 activity in Namalwa cells; assay: Caspase-Glo 3/7 assay, Namalwa cells; details: 24 h, co-treated with VHL ligand VHL298
# Experimental: All cell lines were purchased from ATCC or DSMZ and grown at 37° C. with 5% C02. […]
# (§1) Caspase-glo® assay (Promega) was conducted following the manufacturer's recommendations. […] After a 24 h incubation, 100 μl of the […] substrate was added per well and luminescence was read on a Spectramax M5 (Molecular Devices).
# Namalwa cells (5×104) were treated for 24 hours with the compounds solubilized in DMSO. FIG. 57 is a bar graph depiction of fold increase of apoptosis assessed via caspase 3/7 activity using the Caspase-Glo assay (Promega) described above.
# (§2) Molm-13 (FIG. 76A) or Namalwa (FIG. 76B) cells (5×104) were treated for 24 hours with the compounds solubilized in DMSO in white 96 well plates (10 nM-10 μM solubilized in DMSO). FIG. 76 is a bar graph depiction of fold increase of apoptosis assessed via caspase 3/7 activity using the Caspase-Glo assay (Promega) described above.
# [3] = test system: Molm-13 cells; assay: CellTiter-Glo cell viability, Molm-13 cells
# Experimental: (§3) All cell lines were purchased from ATCC or DSMZ and grown at 37° C. with 5% C02. Human HeLa cells were cultured in complete growth medium (Dulbecco's modified Eagle's medium (DMEM) supplemented with 10% FBS); MCF7 cells were cultured in complete growth medium (Dulbecco's modified Eagle's medium (DMEM) supplemented with 10% FBS and 0.01 mg/ml human recombinant insulin (Sigma Aldrich); Namalwa and MOLM-13 cells were cultured in complete growth medium (RPMI 1640 medium supplemented with 10% FBS); MV-4-11 were cultured in complete growth medium (Iscove's Modified Dulbecco's medium, supplemented with 10% FBS); HCT116 cells were cultured in complete growth medium (McCoy's 5a Medium supplemented with 10% FBS). […]
# CellTiter-Glo® 2.0 Cell Viability Assay (Promega) was carried out following the manufacturer's recommendations. […] After a 72 h incubation, 100 ul of the CellTiter-Glo® substrate was added per well and luminescence was read on a Spectramax M5 (Molecular Devices). […]
# Molm-13 cells (1×104) were treated for 24 (FIG. 77A) or 72 (FIG. 77B) hours were treated in white 96 well plates with the compounds (10 nM-10 μM solubilized in DMSO). After indicated times cell viability was assessed using the CellTiter-Glo® Luminescent Cell Viability Assay (Promega) and the signal detected on a SpectraMax M5 (Molecular Devices).
# [4] = target: T1, BRD4; assay: CURE-PRO-mediated BRD4 degradation in MCF7 cells with VHL ligands, WES (ProteinSimple); set-up: endogenous in cells; host or cells: HeLa, MCF7 or HCT116
# Experimental: as §3, with “FBS). For cellular degradation of BRD4 studies, cells were seeded in a 12-well plate at 70-80% confluency, allowed to attach overnight, and incubated with the indicated compounds for the indicated time.” for “FBS).”
# WES Simple analysis was performed on WES system (ProteinSimple-Biotechne) according to the manufacturer's instructions. Total protein concentrations of cell lysates were determined by the Pierce BCA kit (Thermo Fisher). […]
# MCF7 cells (3×10^6) were treated for 4-24 hours continually (FIG. 72), or treated for 4 h, washed and incubated for a further 4-24 h with the compounds solubilized in DMSO. […] The total protein concentration was quantified by the BCA method (ThermoFisher Sciences). […]
# [5] = test system: caspase 3/7 activity in MOLM13 cells; assay: Caspase-Glo 3/7 assay, Molm-13 cells; details: 24 h, co-treated with VHL ligand VHL298
# Experimental: as §3, §1, §2
smiles,measurement,setting,value
"CCNC(=O)C[C@@H]1N=C(c2ccc(Cl)cc2)c2cc(B(O)O)ccc2-n2c(C)nnc21 [BRD-E50, ((4S)-6-(4-chlorophenyl)-4-(2-(ethylamino)-2-oxoethyl)-1-methyl-4H-benzo[f][1,2,4]triazolo[4,3-a] [1,4]diazepin-8-yl)boronic acid]","Degradation of BRD4, combination with VHL ligand [drawing 442]",[1],✓ (A black check mark indicates efficacy of 30% to 70% or higher protein degradation)
same,caspase 3/7 activity,[2],does not increase caspase activity
same,loss of cell viability (CellTiter-Glo),"[3]; 24 h and 72 h, 10 nM-10 μM, co-dosed 1:1 with VHL ligand 8305",marked loss in cell viability; also recorded: a greater loss of cell viability
same,cell viability (CellTiter-Glo),[3]; co-treated with VHL ligand VHL298,decreases levels of cell viability to similar levels of BRD-E50 treatment alone
same,BRD4 degradation after pre-incubation with VHL298,"[4]; 10 μM each with VHL ligand 8305, VHL298 preincubated at equimolar concentration",attenuates CURE-PRO mediated BRD4 degradation; also recorded: No degradation is noted; also recorded: inhibited CURE-PRO mediated degradation; also recorded: inhibits the degradation of BRD4
same,BRD4 degradation,"[4]; 10 μM each, 1:1 with VHL ligand 8305, 4-24 h, with washout where stated","directs degradation of BRD4 as early as 4 h, with sustained degradation 24 h after wash out; also recorded: marked BRD4 degradation after 4 h with sustained degradation for up to 8 h after drugs are washed out"
same,caspase 3/7 activity,[5],does not increase caspase activity
